# Measurements: patent US20250195684A1, “DELIVERY METHODS USING PLATELETS” (Children's Hospital Medical Center, priority 2022, published 2025)
# Columns and labels:
# 293T cells = test: Screening of anchoring protein HA fusion constructs, PE anti-HA flow cytometry; type: cell-based; details: live cells, gated on eGFP
# From the text: FIG. 15A depicts exemplary constructs used for the determination and identification of cell surface targeting ligands, which can be, for example, expressed on platelets to increase cell type specificity. The exemplary constructs involve custom TetOn expression vectors with left/right homologue arms to AAVS1. TetOn allows for conditional expression of targeting ligands or epitopes fused to the N- and C-termini of platelet cell surface markers (e.g. CD41, CD42a, CD61). Downstream cGFP through a P2A linker allows for successful identification of cells expressing the fusion vector. FIG. 15B depicts flow cytometry plots of 293T cells transfected with the exemplary N- or C-terminal fusion vectors depicted in FIG. 15A using CD41, CD42a, and CD61. Live cells were stained with a PE anti-HA fluorescent antibody and gated upon cGFP expression during flow cytometry analysis. PE fluorescence is shown against control (untransfected) 293T cells stained with PE anti-HA (shaded).
# HUVECs = test: Co-culture of MEG-01-GFP megakaryocyte-derived GFP-positive platelets with HUVECs (protein delivery); type: cell-based, human; details: 80 μM concentration
# Description: In addition to nucleic acids such as mRNA, modified platelets were used to deliver protein. MEG-01 megakaryocytes were transduced with pLV-GFP lentivirus to induce expression of GFP (MEG-01-GFP). These megakaryocytes were cultured to produce GFP-positive platelets (FIG. 4A), which were co-cultured with HUVECs.
# In a separate experiment, GFP-positive platelets were co-cultured with mCherry-expressing HUVECs.
# human iPSC line 1383D6 = test: Effect of cytochalasin B on platelet-based mCherry mRNA delivery; type: cell-based; details: 100 nM or 350 nM
# Description: The effects of cytochalasin B (CytoB), which is an inhibitor of tunneling nanotubes, on platelet-based mRNA delivery were investigated in the exemplary human iPSC line 1383D6. The cells were plated at a density of 2×10^5 cells/well in a 12 well plate and grown overnight at 37° C. with 5% CO2. Platelets were loaded with 5 μg of mCherry mRNA using Lipofectamine MessengerMax as described herein. The mRNA loaded platelets were further prepared by centrifuging at 1800×g at room temperature for 10 min, washing with EBM, and resuspending in fresh 600 μL culture media. Then, 100 μL of the mRNA loaded platelets (corresponding to 0.8 μg mRNA/well) containing 100 nM or 350 nM CytoB (or without CytoB as control) was added to the cells in a total volume of 1 mL culture media. After 24 hour incubation at 37° C. with 5% CO2, fluorescent images were obtained with a BZ-X810 fluorescence microscope (Keyence) using a TRITC filter. Subsequently, the cells were harvested using 0.25% trypsin-EDTA solution, washed twice with PBS, and centrifuged. The cell pellet was dispersed using PBS containing 3% FBS, stained with LIVE/DEAD Fixable Green Dead Cell Stain Kit (Thermo Fisher Scientific) according to manufacturer's instructions. […] Relative value in mean fluorescence intensity (MFI) was calculated with respect to the control samples without CytoB.
compound,measurement,setting,value
"C-terminal fusion of CD61 with an HA epitope: TetOn expression construct of platelet surface marker CD61 fused C-terminally to an HA epitope, with P2A eGFP",exposure of HA epitope on cell surface,293T cells,robust exposure of the HA epitope on the 293T cell surface
same,exposure of HA epitope on cell surface,293T cells; listed as C-terminal CD61-HA fusion construct,results in anti-HA fluorescence on the cell surface
O=C(N/N=C/c1ccc(O)c(O)c1)c1cc2ccccc2cc1O [dynasore],transformation of HUVECs by platelets treated with inhibitor,HUVECs,unable to transform HUVECs
"C=C1[C@@H](C)[C@H]2[C@H](Cc3ccccc3)NC(=O)[C@]23OC(=O)/C=C/[C@H](O)CCC[C@@H](C)C/C=C/[C@H]3[C@@H]1O [CytoB, cytochalasin B]",effect on platelet-based mRNA delivery,human iPSC line 1383D6,Prevents Platelet-Based mRNA Delivery
same,cell death (MFI of green dead cell stain),human iPSC line 1383D6; 24 hour,does not cause cell death
